Assay results published in the NIST ThermoML archive (doi:10.1021/acs.jced.5b00077).
Numbers after ± are expanded uncertainties.

Key:
[1] = refractive index (Na D-line) (dimensionless); conditions: 101.33 kPa, Liquid, Standard Abbe refractometry
[2] = for surface tension liquid-gas: Ring tensiometer; for electrical conductivity: 101.33 kPa, Liquid, Alternating current cell with electrodes

CCC[NH3+].O=C[O-] [propylammonium formate]
refractive index ([1]; 293.15 K): 1.44 ± 0.0012 | refractive index ([1]; 298.15 K): 1.4386 ± 0.0012 | refractive index ([1]; 303.15 K): 1.4372 ± 0.0012 | refractive index ([1]; 308.15 K): 1.4356 ± 0.0012 | refractive index ([1]; 313.15 K): 1.4341 ± 0.0012 | refractive index ([1]; 318.15 K): 1.4326 ± 0.0012 | refractive index ([1]; 323.15 K): 1.431 ± 0.0012 | refractive index ([1]; 328.15 K): 1.4295 ± 0.0012 | refractive index ([1]; 333.15 K): 1.428 ± 0.0012 | surface tension liquid-gas ([2]; 293.15 K): 37.8 ± 1.1 mN/m | electrical conductivity ([2]; 293.15 K): 0.31 ± 0.01 S/m | surface tension liquid-gas ([2]; 298.15 K): 37.4 ± 1.1 mN/m | electrical conductivity ([2]; 298.15 K): 0.36 ± 0.01 S/m | surface tension liquid-gas ([2]; 303.15 K): 37 ± 1.1 mN/m | electrical conductivity ([2]; 303.15 K): 0.44 ± 0.01 S/m | surface tension liquid-gas ([2]; 308.15 K): 36.6 ± 1 mN/m | electrical conductivity ([2]; 308.15 K): 0.51 ± 0.01 S/m | surface tension liquid-gas ([2]; 313.15 K): 36.2 ± 1 mN/m | electrical conductivity ([2]; 313.15 K): 0.59 ± 0.01 S/m | surface tension liquid-gas ([2]; 318.15 K): 35.8 ± 1 mN/m | electrical conductivity ([2]; 318.15 K): 0.68 ± 0.01 S/m | surface tension liquid-gas ([2]; 323.15 K): 35.4 ± 1 mN/m | electrical conductivity ([2]; 323.15 K): 0.78 ± 0.01 S/m | surface tension liquid-gas ([2]; 328.15 K): 35 ± 1 mN/m | electrical conductivity ([2]; 328.15 K): 0.87 ± 0.01 S/m | surface tension liquid-gas ([2]; 333.15 K): 34.6 ± 1 mN/m | electrical conductivity ([2]; 333.15 K): 1 ± 0.01 S/m

CC(=O)[O-].CCC[NH3+] [propylammonium acetate]
refractive index ([1]; 293.15 K): 1.4383 ± 0.0012 | refractive index ([1]; 298.15 K): 1.4369 ± 0.0012 | refractive index ([1]; 303.15 K): 1.4356 ± 0.0012 | refractive index ([1]; 308.15 K): 1.4341 ± 0.0012 | refractive index ([1]; 313.15 K): 1.4328 ± 0.0012 | refractive index ([1]; 318.15 K): 1.4313 ± 0.0012 | refractive index ([1]; 323.15 K): 1.4301 ± 0.0012 | refractive index ([1]; 328.15 K): 1.4287 ± 0.0012 | refractive index ([1]; 333.15 K): 1.4273 ± 0.0012 | surface tension liquid-gas ([2]; 293.15 K): 33.5 ± 1 mN/m | electrical conductivity ([2]; 293.15 K): 0.04 ± 0.01 S/m | surface tension liquid-gas ([2]; 298.15 K): 33.1 ± 1 mN/m | electrical conductivity ([2]; 298.15 K): 0.06 ± 0.01 S/m | surface tension liquid-gas ([2]; 303.15 K): 32.7 ± 0.9 mN/m | electrical conductivity ([2]; 303.15 K): 0.08 ± 0.01 S/m | surface tension liquid-gas ([2]; 308.15 K): 32.2 ± 0.9 mN/m | electrical conductivity ([2]; 308.15 K): 0.1 ± 0.01 S/m | surface tension liquid-gas ([2]; 313.15 K): 31.8 ± 0.9 mN/m | electrical conductivity ([2]; 313.15 K): 0.14 ± 0.01 S/m | surface tension liquid-gas ([2]; 318.15 K): 31.4 ± 0.9 mN/m | electrical conductivity ([2]; 318.15 K): 0.17 ± 0.01 S/m | surface tension liquid-gas ([2]; 323.15 K): 31 ± 0.9 mN/m | electrical conductivity ([2]; 323.15 K): 0.22 ± 0.01 S/m | surface tension liquid-gas ([2]; 328.15 K): 30.6 ± 0.9 mN/m | electrical conductivity ([2]; 328.15 K): 0.27 ± 0.01 S/m | surface tension liquid-gas ([2]; 333.15 K): 30.2 ± 0.9 mN/m | electrical conductivity ([2]; 333.15 K): 0.33 ± 0.01 S/m

O=C([O-])C(F)(F)F.[NH3+]CCCO [3-hydroxypropylammonium trifluoroacetate]
refractive index ([1]; 293.15 K): 1.4113 ± 0.0012 | refractive index ([1]; 298.15 K): 1.4101 ± 0.0012 | refractive index ([1]; 303.15 K): 1.409 ± 0.0012 | refractive index ([1]; 308.15 K): 1.4078 ± 0.0012 | refractive index ([1]; 313.15 K): 1.4067 ± 0.0012 | refractive index ([1]; 318.15 K): 1.4055 ± 0.0012 | refractive index ([1]; 323.15 K): 1.4044 ± 0.0012 | refractive index ([1]; 328.15 K): 1.4032 ± 0.0012 | refractive index ([1]; 333.15 K): 1.402 ± 0.0012 | surface tension liquid-gas ([2]; 293.15 K): 38.2 ± 1.1 mN/m | electrical conductivity ([2]; 293.15 K): 0.03 ± 0.01 S/m | surface tension liquid-gas ([2]; 298.15 K): 37.8 ± 1.1 mN/m | electrical conductivity ([2]; 298.15 K): 0.04 ± 0.01 S/m | surface tension liquid-gas ([2]; 303.15 K): 37.4 ± 1.1 mN/m | electrical conductivity ([2]; 303.15 K): 0.06 ± 0.01 S/m | surface tension liquid-gas ([2]; 308.15 K): 37 ± 1.1 mN/m | electrical conductivity ([2]; 308.15 K): 0.09 ± 0.01 S/m | surface tension liquid-gas ([2]; 313.15 K): 36.5 ± 1 mN/m | electrical conductivity ([2]; 313.15 K): 0.12 ± 0.01 S/m | surface tension liquid-gas ([2]; 318.15 K): 36.1 ± 1 mN/m | electrical conductivity ([2]; 318.15 K): 0.16 ± 0.01 S/m | surface tension liquid-gas ([2]; 323.15 K): 35.7 ± 1 mN/m | electrical conductivity ([2]; 323.15 K): 0.2 ± 0.01 S/m | surface tension liquid-gas ([2]; 328.15 K): 35.3 ± 1 mN/m | electrical conductivity ([2]; 328.15 K): 0.25 ± 0.01 S/m | surface tension liquid-gas ([2]; 333.15 K): 34.9 ± 1 mN/m | electrical conductivity ([2]; 333.15 K): 0.31 ± 0.01 S/m

CC(=O)[O-].[NH3+]CCCO [3-hydroxypropylammonium acetate]
refractive index ([1]; 293.15 K): 1.4663 ± 0.0012 | refractive index ([1]; 298.15 K): 1.4652 ± 0.0012 | refractive index ([1]; 303.15 K): 1.464 ± 0.0012 | refractive index ([1]; 308.15 K): 1.4628 ± 0.0012 | refractive index ([1]; 313.15 K): 1.4616 ± 0.0012 | refractive index ([1]; 318.15 K): 1.4605 ± 0.0012 | refractive index ([1]; 323.15 K): 1.4593 ± 0.0012 | refractive index ([1]; 328.15 K): 1.4581 ± 0.0012 | refractive index ([1]; 333.15 K): 1.457 ± 0.0012 | surface tension liquid-gas ([2]; 293.15 K): 48 ± 1.4 mN/m | electrical conductivity ([2]; 293.15 K): 0.01 ± 0.01 S/m | surface tension liquid-gas ([2]; 298.15 K): 47.5 ± 1.3 mN/m | electrical conductivity ([2]; 298.15 K): 0.01 ± 0.01 S/m | surface tension liquid-gas ([2]; 303.15 K): 47 ± 1.3 mN/m | electrical conductivity ([2]; 303.15 K): 0.01 ± 0.01 S/m | surface tension liquid-gas ([2]; 308.15 K): 46.5 ± 1.3 mN/m | electrical conductivity ([2]; 308.15 K): 0.02 ± 0.01 S/m | surface tension liquid-gas ([2]; 313.15 K): 46 ± 1.3 mN/m | electrical conductivity ([2]; 313.15 K): 0.02 ± 0.01 S/m | surface tension liquid-gas ([2]; 318.15 K): 45.5 ± 1.3 mN/m | electrical conductivity ([2]; 318.15 K): 0.03 ± 0.01 S/m | surface tension liquid-gas ([2]; 323.15 K): 45 ± 1.3 mN/m | electrical conductivity ([2]; 323.15 K): 0.04 ± 0.01 S/m | surface tension liquid-gas ([2]; 328.15 K): 44.5 ± 1.3 mN/m | electrical conductivity ([2]; 328.15 K): 0.05 ± 0.01 S/m | surface tension liquid-gas ([2]; 333.15 K): 44 ± 1.2 mN/m | electrical conductivity ([2]; 333.15 K): 0.06 ± 0.01 S/m

O=C[O-].[NH3+]CCCO [3-hydroxypropylammonium formate]
refractive index ([1]; 293.15 K): 1.4678 ± 0.0012 | refractive index ([1]; 298.15 K): 1.4667 ± 0.0012 | refractive index ([1]; 303.15 K): 1.4655 ± 0.0012 | refractive index ([1]; 308.15 K): 1.4644 ± 0.0012 | refractive index ([1]; 313.15 K): 1.4632 ± 0.0012 | refractive index ([1]; 318.15 K): 1.4621 ± 0.0012 | refractive index ([1]; 323.15 K): 1.461 ± 0.0012 | refractive index ([1]; 328.15 K): 1.4598 ± 0.0012 | refractive index ([1]; 333.15 K): 1.4586 ± 0.0012 | surface tension liquid-gas ([2]; 293.15 K): 56.9 ± 1.6 mN/m | electrical conductivity ([2]; 293.15 K): 0.11 ± 0.01 S/m | surface tension liquid-gas ([2]; 298.15 K): 56.4 ± 1.6 mN/m | electrical conductivity ([2]; 298.15 K): 0.14 ± 0.01 S/m | surface tension liquid-gas ([2]; 303.15 K): 55.9 ± 1.6 mN/m | electrical conductivity ([2]; 303.15 K): 0.17 ± 0.01 S/m | surface tension liquid-gas ([2]; 308.15 K): 55.4 ± 1.6 mN/m | electrical conductivity ([2]; 308.15 K): 0.21 ± 0.01 S/m | surface tension liquid-gas ([2]; 313.15 K): 54.9 ± 1.5 mN/m | electrical conductivity ([2]; 313.15 K): 0.26 ± 0.01 S/m | surface tension liquid-gas ([2]; 318.15 K): 54.4 ± 1.5 mN/m | electrical conductivity ([2]; 318.15 K): 0.3 ± 0.01 S/m | surface tension liquid-gas ([2]; 323.15 K): 54 ± 1.5 mN/m | electrical conductivity ([2]; 323.15 K): 0.36 ± 0.01 S/m | surface tension liquid-gas ([2]; 328.15 K): 53.5 ± 1.5 mN/m | electrical conductivity ([2]; 328.15 K): 0.42 ± 0.01 S/m | surface tension liquid-gas ([2]; 333.15 K): 53 ± 1.5 mN/m | electrical conductivity ([2]; 333.15 K): 0.49 ± 0.01 S/m
